Experimental findings from patent US20260265329A1, “POLYPEPTIDE AND DERIVATIVE THEREOF, COMPOSITION, AND USE THEREOF” (HANGZHOU SCIWIND BIOSCIENCES CO., LTD., priority 2023, published 2026) are described below.

The target of this assay is T1, human amylin receptors (Homo sapiens, UniProt O60896+P30988).
T1 construct: host or cells: CHO-K1/Ga15/AMY3 cells, further stably transfected with a CRE-luciferase plasmid
T1 sequence (P30988 25-474): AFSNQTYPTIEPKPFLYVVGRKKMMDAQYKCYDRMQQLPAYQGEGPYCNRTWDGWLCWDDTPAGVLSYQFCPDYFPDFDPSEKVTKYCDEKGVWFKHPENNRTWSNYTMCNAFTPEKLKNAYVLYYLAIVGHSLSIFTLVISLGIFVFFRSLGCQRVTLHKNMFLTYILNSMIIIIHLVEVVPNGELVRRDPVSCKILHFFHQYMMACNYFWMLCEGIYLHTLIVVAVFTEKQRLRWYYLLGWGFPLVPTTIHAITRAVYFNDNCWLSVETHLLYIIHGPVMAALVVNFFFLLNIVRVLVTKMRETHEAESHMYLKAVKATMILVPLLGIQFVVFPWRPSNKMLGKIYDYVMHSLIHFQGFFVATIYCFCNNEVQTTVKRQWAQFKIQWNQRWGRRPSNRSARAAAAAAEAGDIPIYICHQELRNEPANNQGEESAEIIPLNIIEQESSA
T1 sequence (O60896 24-148 partner): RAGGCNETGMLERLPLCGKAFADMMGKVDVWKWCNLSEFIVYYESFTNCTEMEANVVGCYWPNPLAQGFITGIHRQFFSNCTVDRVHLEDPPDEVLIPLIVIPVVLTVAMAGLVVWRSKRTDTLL
Put plainly: Luciferase assay in stably transfected amylin receptor/CRE-luc CHO cell line. The class given is cell-based. The note with it: for Relative activity: EC50 ratio of Cagrilintide to the compound, Cagrilintide 100%; for EC50: amylin receptor/CRE-luc CHO cells, 24 hours incubation, luminescence.

The structures appear in SMILES notation. Starred links: 1 amine or outer side, 2 acyl side, 3 side chain; linkers in the order of their positions; H or OH if unused. Non-standard residues stand in square brackets, D forms with d. Residues, ends and D or L forms follow the SMILES beside them. *: point of attachment. C20 diacid = O=C(O)CCCCCCCCCCCCCCCCCCC(=O)*; γGlu = O=C(O)[C@H](CCC(=O)[*:2])N[*:1]; βAsp = O=C(O)[C@H](CC(=O)[*:2])N[*:1]; Hyp = O=C(O)[C@@H]1C[C@@H](O)CN1; Trx = NC[C@H]1CC[C@H](C(=O)O)CC1; AEEA = NCCOCCOCC(=O)O; Inp = O=C(O)C1CCNCC1

With `CC[C@H](C)[C@H](NC(=O)[C@@H]1CCCN1C(=O)[C@H](CCCCN)NC(=O)[C@H](CC(C)C)NC(=O)[C@H](CC(N)=O)NC(=O)[C@H](CC(N)=O)NC(=O)[C@H](CO)NC(=O)[C@H](CO)NC(=O)[C@H](Cc1c[nH]cn1)NC(=O)[C@H](CCCNC(=N)N)NC(=O)[C@H](CC(C)C)NC(=O)[C@H](Cc1ccccc1)NC(=O)[C@H](CC(=O)O)NC(=O)[C@H](C)NC(=O)[C@H](CC(C)C)NC(=O)[C@H](CCCNC(=N)N)NC(=O)[C@H](CCC(N)=O)NC(=O)[C@@H](NC(=O)[C@H](C)NC(=O)[C@H](C)NC(=O)[C@@H](NC(=O)[C@H](CO)NC(=O)[C@H](CC(C)C)NC(=O)[C@H](CCC(N)=O)NC(=O)[C@H](CO)NC(=O)[C@H](C)NC(=O)[C@H]1CC[C@H](CNC(=O)CCCCCCCCCCCCCCCCCCC(=O)O)CC1)[C@@H](C)O)[C@@H](C)O)C(=O)N[C@@H](CC(C)C)C(=O)N1CCC[C@H]1C(=O)N1CCC[C@H]1C(=O)N[C@H](C(=O)N[C@@H](CC(N)=O)C(=O)N[C@H](C(=O)NCC(=O)N[C@@H](CO)C(=O)N[C@@H](CC(N)=O)C(=O)N[C@H](C(=O)N1C[C@H](O)C[C@H]1C(N)=O)[C@@H](C)O)C(C)C)[C@@H](C)O` [M29] ({C20 diacid-Trx}-ASQLSTAATQRLADFLRHSSNNLKPILPPTNVGSNT[Hyp]-NH2), the Relative activity turned out to be 412%.

By EC50 is commonly meant the concentration at which the effect is half-maximal. Lower therefore signals an effect from little substance. `CC[C@H](C)[C@H](NC(=O)[C@@H]1CCCN1C(=O)[C@H](CCCCN)NC(=O)[C@H](CC(C)C)NC(=O)[C@H](CC(N)=O)NC(=O)[C@H](CC(N)=O)NC(=O)[C@H](CO)NC(=O)[C@H](CO)NC(=O)[C@H](Cc1c[nH]cn1)NC(=O)[C@H](CCCNC(=N)N)NC(=O)[C@H](CC(C)C)NC(=O)[C@H](Cc1ccccc1)NC(=O)[C@H](CC(=O)O)NC(=O)[C@H](C)NC(=O)[C@H](CC(C)C)NC(=O)[C@H](CCCNC(=N)N)NC(=O)[C@H](CCC(N)=O)NC(=O)[C@@H](NC(=O)[C@H](C)NC(=O)[C@H](C)NC(=O)[C@@H](NC(=O)[C@H](CO)NC(=O)[C@H](CC(C)C)NC(=O)[C@H](CCC(N)=O)NC(=O)[C@H](CO)NC(=O)[C@H](C)NC(=O)C1CCN(C(=O)CCCCCCCCCCCCCCCCCCC(=O)O)CC1)[C@@H](C)O)[C@@H](C)O)C(=O)N[C@@H](CC(C)C)C(=O)N1CCC[C@H]1C(=O)N1CCC[C@H]1C(=O)N[C@H](C(=O)N[C@@H](CC(N)=O)C(=O)N[C@H](C(=O)NCC(=O)N[C@@H](CO)C(=O)N[C@@H](CC(N)=O)C(=O)N[C@H](C(=O)N1C[C@H](O)C[C@H]1C(N)=O)[C@@H](C)O)C(C)C)[C@@H](C)O` [M30] ({C20 diacid-Inp}-ASQLSTAATQRLADFLRHSSNNLKPILPPTNVGSNT[Hyp]-NH2) showed an EC50 of 0.039 nM. This counts as picomolar.

`CC[C@H](C)[C@H](NC(=O)[C@@H]1CCCN1C(=O)[C@H](CCCCN)NC(=O)[C@H](CC(C)C)NC(=O)[C@H](CC(N)=O)NC(=O)[C@H](CC(N)=O)NC(=O)[C@H](CO)NC(=O)[C@H](CO)NC(=O)[C@H](Cc1c[nH]cn1)NC(=O)[C@H](CCCNC(=N)N)NC(=O)[C@H](CC(C)C)NC(=O)[C@H](Cc1ccccc1)NC(=O)[C@H](CC(=O)O)NC(=O)[C@H](C)NC(=O)[C@H](CC(C)C)NC(=O)[C@H](CCCNC(=N)N)NC(=O)[C@H](CCC(N)=O)NC(=O)[C@@H](NC(=O)[C@H](C)NC(=O)[C@H](C)NC(=O)[C@@H](NC(=O)[C@H](CO)NC(=O)[C@H](CC(C)C)NC(=O)[C@H](CCC(N)=O)NC(=O)[C@H](CO)NC(=O)[C@H](C)NC(=O)COCCOCCNC(=O)COCCOCCNC(=O)CC[C@H](NC(=O)CCCCCCCCCCCCCCCCCCC(=O)O)C(=O)O)[C@@H](C)O)[C@@H](C)O)C(=O)N[C@@H](CC(C)C)C(=O)N1CCC[C@H]1C(=O)N1CCC[C@H]1C(=O)N[C@H](C(=O)N[C@@H](CC(N)=O)C(=O)N[C@H](C(=O)NCC(=O)N[C@@H](CO)C(=O)N[C@@H](CC(N)=O)C(=O)N[C@H](C(=O)N1C[C@H](O)C[C@H]1C(N)=O)[C@@H](C)O)C(C)C)[C@@H](C)O` [M31] ({C20 diacid-γGlu-AEEA-AEEA}-ASQLSTAATQRLADFLRHSSNNLKPILPPTNVGSNT[Hyp]-NH2): the Relative activity came to 30% and the EC50 came out at 0.168 nM.

As for `CC[C@H](C)[C@H](NC(=O)[C@@H]1CCCN1C(=O)[C@H](CCCCN)NC(=O)[C@H](CC(C)C)NC(=O)[C@H](CC(N)=O)NC(=O)[C@H](CC(N)=O)NC(=O)[C@H](CO)NC(=O)[C@H](CO)NC(=O)[C@H](Cc1c[nH]cn1)NC(=O)[C@H](CCCNC(=N)N)NC(=O)[C@H](CC(C)C)NC(=O)[C@H](Cc1ccccc1)NC(=O)[C@H](CC(=O)O)NC(=O)[C@H](C)NC(=O)[C@H](CC(C)C)NC(=O)[C@H](CCCNC(=N)N)NC(=O)[C@H](CCC(N)=O)NC(=O)[C@@H](NC(=O)[C@H](C)NC(=O)[C@H](C)NC(=O)[C@@H](NC(=O)[C@H](CO)NC(=O)[C@H](CC(C)C)NC(=O)[C@H](CCC(N)=O)NC(=O)[C@H](CO)NC(=O)[C@H](C)NC(=O)COCCOCCNC(=O)COCCOCCNC(=O)[C@H](CCC(=O)O)NC(=O)CCCCCCCCCCCCCCCCCCC(=O)O)[C@@H](C)O)[C@@H](C)O)C(=O)N[C@@H](CC(C)C)C(=O)N1CCC[C@H]1C(=O)N1CCC[C@H]1C(=O)N[C@H](C(=O)N[C@@H](CC(N)=O)C(=O)N[C@H](C(=O)NCC(=O)N[C@@H](CO)C(=O)N[C@@H](CC(N)=O)C(=O)N[C@H](C(=O)N1C[C@H](O)C[C@H]1C(N)=O)[C@@H](C)O)C(C)C)[C@@H](C)O` [M32] ({C20 diacid}-E[AEEA][AEEA]ASQLSTAATQRLADFLRHSSNNLKPILPPTNVGSNT[Hyp]-NH2), the Relative activity turned out to be 44% and the response was half-maximal at 0.115 nM (EC50).

As for `CC[C@H](C)[C@H](NC(=O)[C@@H]1CCCN1C(=O)[C@H](CCCCN)NC(=O)[C@H](CC(C)C)NC(=O)[C@H](CC(N)=O)NC(=O)[C@H](CC(N)=O)NC(=O)[C@H](CO)NC(=O)[C@H](CO)NC(=O)[C@H](Cc1c[nH]cn1)NC(=O)[C@H](CCCNC(=N)N)NC(=O)[C@H](CC(C)C)NC(=O)[C@H](Cc1ccccc1)NC(=O)[C@H](CC(=O)O)NC(=O)[C@H](C)NC(=O)[C@H](CC(C)C)NC(=O)[C@H](CCCNC(=N)N)NC(=O)[C@H](CCC(N)=O)NC(=O)[C@@H](NC(=O)[C@H](C)NC(=O)[C@H](C)NC(=O)[C@@H](NC(=O)[C@H](CO)NC(=O)[C@H](CC(C)C)NC(=O)[C@H](CCC(N)=O)NC(=O)[C@H](CO)NC(=O)[C@H](C)NC(=O)COCCOCCNC(=O)COCCOCCNC(=O)C[C@H](NC(=O)CCCCCCCCCCCCCCCCCCC(=O)O)C(=O)O)[C@@H](C)O)[C@@H](C)O)C(=O)N[C@@H](CC(C)C)C(=O)N1CCC[C@H]1C(=O)N1CCC[C@H]1C(=O)N[C@H](C(=O)N[C@@H](CC(N)=O)C(=O)N[C@H](C(=O)NCC(=O)N[C@@H](CO)C(=O)N[C@@H](CC(N)=O)C(=O)N[C@H](C(=O)N1C[C@H](O)C[C@H]1C(N)=O)[C@@H](C)O)C(C)C)[C@@H](C)O` [M33] ({C20 diacid-βAsp-AEEA-AEEA}-ASQLSTAATQRLADFLRHSSNNLKPILPPTNVGSNT[Hyp]-NH2), the Relative activity is listed as 37% and the EC50 worked out at 0.145 nM.
